In patent US20090118194A1, “Measurement of melanocortin peptides and uses thereof” (Auckland UniServices Limited, priority 2002, published 2009):

Tested on: 3T3 L1 adipocytes
Assay: Leptin production in differentiated 3T3 L1 adipocytes (peptide stimulation assay)
Assay type: cell-based, murine
Settings: for mean leptin level: one assay; for Leptin Response, Mean: 4 hours, 2 assays combined
Method: • 2.1 The objective of this study was to determine the effects of a-MSH and desacetyl a-MSH on leptin and triglyceride production in murine 3T3 L1 adipocytes. • 2.2 Pre-adipocytes were seeded in 6-well plates and 2 days post confluence (Day 2) were differentiated with […] indomethacin+5 ug/mL insulin (described in previous documents). • 2.3 On Day 13 adipocytes were stimulated with 4 doses each of a-MSH and desacetyl a-MSH (or no peptide added) for 4 hours. • 2.4 Medium was removed from the wells and leptin and triglyceride levels measured. • 2.5 Intracytoplasmic lipid accumulation was measured by staining with Oil red O.
• 4.1 Medium=a-MEM+0.5% BSA (100 mL a-MEM+0.5 g BSA) • 4.2 Doses of a-MSH and da-MSH (stocks in −80° C. freezer=1 ug/ul), using MW of a-MSH. • 1 M=1665 g/L=1665 mg/mL • 1 mM=1.665 mg/mL • 1 uM=1.665 ug/mL • 1.665 ug/mL=3.3 ug/2 mL in each well • 1/10 dilution of 1 ug/ul (stock)=0.1 ug/ul. 33 ul=3.3 ug. • Prepare 1/10 dilution of freezer stock (1 ug/ul) to make 0.1 ug/ul, using a-MEM+0.5% BSA as diluent. • Make 3 serial dilutions of 1/10 to add 33 ul to each well in 6-well plate. • Doses are in triplicate wells, so require 3×33=99 ul for each dose.
• 5.1 Assay is performed on Day 14 after initiation of cell differentiation. On day prior to stimulation assay, replace growth medium+insulin with medium prepared in 4.1 (a-MEM+0.5% BSA) and return plates to incubator. • 5.2 On Day of assay prepare peptide solutions as in 4.2 and IBMX as in 4.3. • 5.3 Replace medium with the same medium supplemented with 1 mM IBMX (as in 4.3) and allow cells to equilibrate in incubator for 10 minutes. • 5.4 Add increasing concentrations of peptides (or none), 33 ul per well, swirl gently to mix, and place plates in incubator for 4 hours. • 5.5 At the end of the incubation remove media from wells and store triplicate aliquots in −20° C. freezer for measurement of leptin and triglycerides. • 5.6 Stain adipocytes in wells with Oil Red O as in “Oil Red O Staining of Adipocyte” document. • 5.7 After eluting the stain, remove cells from wells as in 6.0 for measuring total protein.
Leptin Assays Quantikine M kit (R & D Systems Inc, UK # MOB00 Abingdon, Oxon) and DSL kit (DSL #10-24100, Australia PTY Ltd, NSW, Australia) were used. […] The Quantikine M kit is preferred as it is more sensitive and precise.

Sequence: SYSMEHFRWGKPV [desacetyl-α-MSH, non-acetylated form of α-MSH, obtained from Bachem]
- effect on leptin production (1 nM single peptide): appears to reduce leptin production
- mean leptin level (1 nM single peptide): 480.4 pg/mL
- Leptin Response, Mean (1 nM): 95.4 % of control
- Leptin Response, Mean (10 nM): 96.3 % of control
- mean leptin level (100 nM single peptide): 528.0 pg/mL
- Leptin Response, Mean (100 nM): 97.7 % of control
- Leptin Response, Mean (1000 nM): 109.4 % of control
